The values that follow come from US20230265116A1, “DEGRADATION OF (EGFR) BY CONJUGATION OF EGFR INHIBITORS WITH E3 LIGASE LIGAND AND METHODS OF USE” (BEIGENE, LTD., priority 2020, published 2023).

Molecules are shown by their SMILES. Like-named read-outs stand apart in the source and are kept apart here.

Experiment [1] has as its target T1, EGFR L858R/T790M/C797S (BaF3-LTC cells) (Homo sapiens, UniProt P00533, C797S/L858R/T790M).
T1 construct: expressed in transfected cells; host or cells: BaF3
In words: EGFR degradation HTRF assay, BaF3-LTC cells. The class given is cell-based. The settings on record: BaF3-LTC, 16h treatment; for Dmax: maximum percentage of degradation, read-out: LTC Dmax (%); for DC50: read-out: LTC DC50. In outline: (§1)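 Cells treated 16 h at 37 °C, 5% CO2 in medium with 0.2% DMSO; top final concentration 10 uM, 5-fold dilution, 8 doses. Lysates read by HTRF (665/620 nm); degradation % versus DMSO high control, DC50 from four-parameter fit, Dmax as maximal degradation.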
On the technique in general: TR-FRET usually uses a lanthanide donor and a delayed reading to cut background.

The test system of experiment [2] is EGFR Del19/T790M/C797S (BaF3-DTC cells). In words: EGFR degradation HTRF assay, BaF3-DTC cells. The settings on record: for DTC Dmax (%): maximum percentage of degradation. The format is cell-based. In outline:
as §1

Where [3] appears, read: 16h treatment, read-out: DTC DC50.

T1 sequence (P00533 25-1210 T790M/C797S/L858R): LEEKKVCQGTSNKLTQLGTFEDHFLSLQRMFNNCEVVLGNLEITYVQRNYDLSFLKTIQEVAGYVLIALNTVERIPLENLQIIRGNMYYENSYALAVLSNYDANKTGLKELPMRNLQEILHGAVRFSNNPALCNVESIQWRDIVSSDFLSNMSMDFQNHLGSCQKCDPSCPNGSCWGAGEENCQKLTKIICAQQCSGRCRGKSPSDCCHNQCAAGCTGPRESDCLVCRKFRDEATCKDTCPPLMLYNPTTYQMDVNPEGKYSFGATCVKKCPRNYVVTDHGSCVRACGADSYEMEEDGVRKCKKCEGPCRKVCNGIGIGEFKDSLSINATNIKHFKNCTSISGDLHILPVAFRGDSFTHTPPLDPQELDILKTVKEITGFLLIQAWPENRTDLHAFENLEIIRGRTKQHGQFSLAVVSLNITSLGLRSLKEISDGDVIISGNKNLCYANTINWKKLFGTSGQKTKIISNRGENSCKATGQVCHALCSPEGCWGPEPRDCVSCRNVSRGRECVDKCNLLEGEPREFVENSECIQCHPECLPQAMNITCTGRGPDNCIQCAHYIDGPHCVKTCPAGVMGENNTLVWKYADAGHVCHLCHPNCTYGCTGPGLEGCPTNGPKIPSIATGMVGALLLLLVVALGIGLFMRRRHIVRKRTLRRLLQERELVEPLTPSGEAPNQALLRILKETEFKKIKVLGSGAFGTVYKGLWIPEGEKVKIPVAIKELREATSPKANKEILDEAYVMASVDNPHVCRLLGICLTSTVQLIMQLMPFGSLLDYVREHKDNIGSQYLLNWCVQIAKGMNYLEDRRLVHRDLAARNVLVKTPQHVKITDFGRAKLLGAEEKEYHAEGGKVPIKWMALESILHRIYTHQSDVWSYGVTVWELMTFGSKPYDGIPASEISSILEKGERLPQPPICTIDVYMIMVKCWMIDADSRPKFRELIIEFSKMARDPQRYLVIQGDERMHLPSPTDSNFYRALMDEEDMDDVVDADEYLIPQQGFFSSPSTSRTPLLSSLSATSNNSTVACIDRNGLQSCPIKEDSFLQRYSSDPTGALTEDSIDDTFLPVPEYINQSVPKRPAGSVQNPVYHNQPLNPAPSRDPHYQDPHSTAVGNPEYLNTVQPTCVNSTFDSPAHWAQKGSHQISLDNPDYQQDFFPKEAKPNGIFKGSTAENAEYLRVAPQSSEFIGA

For the molecule `CCc1cc(Nc2ncc(Br)c(Nc3ccc4nc(C)ccc4c3P(C)(C)=O)n2)c(OC)cc1N1CCC(N2C[C@H](C)N(CCc3cc(F)c(C4CCC(=O)NC4=O)c(F)c3)C[C@H]2C)CC1` (stereo partly drawn) [Example 716, 3-(4-(2-((2S,5R)-4-(1-(4-((5-bromo-4-((5-(dimethylphosphoryl)-2-methylquinolin-6-yl)amino)pyrimidin-2-yl)amino)-2-ethyl-5-methoxyphenyl)piperidin-4-yl)-2,5-dimethylpiperazin-1-yl)ethyl)-2,6-difluorophenyl)piperidine-2,6-dione], in experiment [1], the Dmax (usually the greatest extent of degradation seen) came out at 90% and the DC50 (in general, the concentration at which degradation of the target reaches its halfway point) was determined as 8.2 nM. Besides, the “DTC Dmax (%)” value in experiment [2] (16h treatment) is recorded as 91.65%. For the same molecule, the DC50 in experiment [2] (setting [3]) came out at 3.06 nM.
The corresponding values for `CCc1cc(Nc2ncc(Br)c(Nc3ccc4nccnc4c3P(C)(C)=O)n2)c(OC)cc1N1CCC(N2CCN(CCc3ccc(C4CCC(=O)NC4=O)c(F)c3)C[C@@H]2COC)CC1` (stereo partly drawn) [Example 286, 3-(4-(2-((R)-4-(1-(4-((5-bromo-4-((5-(dimethylphosphoryl)quinoxalin-6-yl)amino)pyrimidin-2-yl)amino)-2-ethyl-5-methoxyphenyl)piperidin-4-yl)-3-(methoxymethyl)piperazin-1-yl)ethyl)-2-fluorophenyl)piperidine-2,6-dione] are 81.5%, 59.3 nM, 75.85% and 23.7 nM.
The corresponding values for `CCc1cc(Nc2ncc(Br)c(Nc3ccc4nccnc4c3P(C)(C)=O)n2)c(OC)cc1N1CCC(N2CCN(CCc3ccc(C4CCC(=O)NC4=O)cc3F)CC2)CC1` (centres unmarked) [Example 6, 3-(4-(2-(4-(1-(4-((5-bromo-4-((5-(dimethylphosphoryl)quinoxalin-6-yl)amino)pyrimidin-2-yl)amino)-2-ethyl-5-methoxyphenyl)piperidin-4-yl)piperazin-1-yl)ethyl)-3-fluorophenyl)piperidine-2,6-dione] are 82.2%, 102 nM, 81.2% and 9.2 nM.
The corresponding values for `CCc1cc(Nc2ncc(Br)c(Nc3ccc4scnc4c3P(C)(C)=O)n2)c(OC)cc1N1CCC(N2CCN(CCc3cc(F)c(C4CCC(=O)NC4=O)c(F)c3)CC2)CC1` (centres unmarked) [Example 206, 3-(4-(2-(4-(1-(4-((5-bromo-4-((4-(dimethylphosphoryl)benzo[d]thiazol-5-yl)amino)pyrimidin-2-yl)amino)-2-ethyl-5-methoxyphenyl)piperidin-4-yl)piperazin-1-yl)ethyl)-2,6-difluorophenyl)piperidine-2,6-dione] are 92.1%, 20.9 nM, 94.22% and 9.26 nM.
As to `CCc1cc(Nc2ncc(Br)c(Nc3ccc4ncsc4c3P(C)(C)=O)n2)c(OC)cc1N1CCC(N2CCN(CCc3cc(F)c(C4CCC(=O)NC4=O)c(F)c3)CC2)CC1` (centres unmarked) [Example 714, 3-(4-(2-(4-(1-(4-((5-bromo-4-((7-(dimethylphosphoryl)benzo[d]thiazol-6-yl)amino)pyrimidin-2-yl)amino)-2-ethyl-5-methoxyphenyl)piperidin-4-yl)piperazin-1-yl)ethyl)-2,6-difluorophenyl)piperidine-2,6-dione], in experiment [1], the Dmax is 90.1% and the DC50 amounted to 18.9 nM. Further, in experiment [2] (16h treatment), the “DTC Dmax (%)” value amounted to 96.7%. Also, in experiment [2] (setting [3]), the DC50 was determined as 5.34 nM.
The corresponding values for `CCc1cc(Nc2ncc(Br)c(Nc3ccc4nccnc4c3P(C)(C)=O)n2)c(OC)cc1N1CCC(N2CCN(CC3CN(c4cccc(C5CCC(=O)NC5=O)c4)C3)CC2)CC1` (centres unmarked) [Example 226, 3-(3-(3-((4-(1-(4-((5-bromo-4-((5-(dimethylphosphoryl)quinoxalin-6-yl)amino)pyrimidin-2-yl)amino)-2-ethyl-5-methoxyphenyl)piperidin-4-yl)piperazin-1-yl)methyl)azetidin-1-yl)phenyl)piperidine-2,6-dione] are 66.9%, 31.4 nM, 77.91% and 26.6 nM.
For `CCc1cc(Nc2ncc(Br)c(Nc3ccc4nc(C)ccc4c3P(C)(C)=O)n2)c(OC)cc1N1CCC(N2CCN(C(=O)C3CCN(c4ccc5c(c4)C(C)(C)C(=O)N5C4CCC(=O)NC4=O)CC3)CC2)CC1` (centres unmarked) [Example 436, 3-(5-(4-(4-(1-(4-((5-bromo-4-((5-(dimethylphosphoryl)-2-methylquinolin-6-yl)amino)pyrimidin-2-yl)amino)-2-ethyl-5-methoxyphenyl)piperidin-4-yl)piperazine-1-carbonyl)piperidin-1-yl)-3,3-dimethyl-2-oxoindolin-1-yl)piperidine-2,6-dione], in experiment [1], the Dmax amounted to 92.5% and the DC50 came out at 3.2 nM. Moreover, the “DTC Dmax (%)” value in experiment [2] (16h treatment) came to 89.14%. Also, the DC50 in experiment [2] (read-out: DTC DC50, 16h treatment) was 2.38 nM.
For the molecule `CCc1cc(Nc2ncc(Br)c(Nc3ccc4nccnc4c3P(C)(C)=O)n2)c(OC)cc1N1CCC(N2CCN(C(=O)C3CN(c4cccc(C5CCC(=O)NC5=O)c4)C3)CC2)CC1` (centres unmarked) [Example 230, 3-(3-(3-(4-(1-(4-((5-bromo-4-((5-(dimethylphosphoryl)quinoxalin-6-yl)amino)pyrimidin-2-yl)amino)-2-ethyl-5-methoxyphenyl)piperidin-4-yl)piperazine-1-carbonyl)azetidin-1-yl)phenyl)piperidine-2,6-dione], in experiment [1], the Dmax is 72% and the DC50 was 19.8 nM. Moreover, the “DTC Dmax (%)” value in experiment [2] (16h treatment) came out at 73.42%. For the same molecule, in experiment [2] (setting [3]), the DC50 was determined as 9.11 nM.
Consider `CCc1cc(Nc2ncc(Br)c(Nc3ccc4nc(C)ccc4c3P(C)(C)=O)n2)c(OC)cc1N1CCC(N2CCN(CCC3CCN(c4ccc5nn(C6CCC(=O)NC6=O)cc5c4)CC3)CC2)CC1` (centres unmarked) [Example 719, 3-(5-(4-(2-(4-(1-(4-((5-bromo-4-((5-(dimethylphosphoryl)-2-methylquinolin-6-yl)amino)pyrimidin-2-yl)amino)-2-ethyl-5-methoxyphenyl)piperidin-4-yl)piperazin-1-yl)ethyl)piperidin-1-yl)-2H-indazol-2-yl)piperidine-2,6-dione], for which, in experiment [1], the Dmax came out at 90.4% and the DC50 worked out at 72.9 nM. The “DTC Dmax (%)” value in experiment [2] (16h treatment) is given as 84.38%. The DC50 in experiment [2] (setting [3]) is 30.6 nM.
With `CCc1cc(Nc2ncc(Br)c(Nc3ccc4nccnc4c3P(C)(C)=O)n2)c(OC)cc1N1CCC(N2CCN(CCCc3cc(F)c(C4CCC(=O)NC4=O)c(F)c3)CC2)CC1` (centres unmarked) [Example 205, 3-(4-(3-(4-(1-(4-((5-bromo-4-((5-(dimethylphosphoryl)quinoxalin-6-yl)amino)pyrimidin-2-yl)amino)-2-ethyl-5-methoxyphenyl)piperidin-4-yl)piperazin-1-yl)propyl)-2,6-difluorophenyl)piperidine-2,6-dione], in experiment [1], the Dmax came to 87.7% and the DC50 worked out at 32.5 nM. Besides, in experiment [2] (16h treatment), the “DTC Dmax (%)” value is recorded as 90.39%. Besides, in experiment [2] (setting [3]), the DC50 is 6.63 nM.
Turning to `CCc1cc(Nc2ncc(Br)c(Nc3ccc4ncn(C)c(=O)c4c3P(C)(C)=O)n2)c(OC)cc1N1CCC(N2CCN(C(=O)C3CCN(c4cc(F)c(C5CCC(=O)NC5=O)c(F)c4)C3)CC2)CC1` (centres unmarked) [Example 701, 3-(4-(3-(4-(1-(4-((5-bromo-4-((5-(dimethylphosphoryl)-3-methyl-4-oxo-3,4-dihydroquinazolin-6-yl)amino)pyrimidin-2-yl)amino)-2-ethyl-5-methoxyphenyl)piperidin-4-yl)piperazine-1-carbonyl)pyrrolidin-1-yl)-2,6-difluorophenyl)piperidine-2,6-dione], in experiment [1], the Dmax came to 92.7% and the DC50 is 9.87 nM. Also, in experiment [2] (16h treatment), the “DTC Dmax (%)” value is 90.24%. In experiment [2] (setting [3]), the DC50 came to 2.23 nM.
